From ChEMBL document CHEMBL2413063, “Neuroactive diol and acyloin metabolites from cone snail-associated bacteria” (Bioorg Med Chem Lett, 2013)
One block for each compound: values may come before it. Active and inactive are the calls of the source. The rule behind the calls is not given here.

Legend:
[1] = target: Sodium-dependent serotonin transporter (Homo sapiens) (UniProt P31645); assay: Binding affinity to serotonin transporter (unknown origin) at 10 uM by ligand displacement assay
[2] = target: Sodium-dependent dopamine transporter (Homo sapiens) (UniProt Q01959); assay: Binding affinity to dopamine transporter (unknown origin) at 10 uM by ligand displacement assay
Sodium-dependent dopamine transporter (Homo sapiens), sequence (Q01959 whole entry): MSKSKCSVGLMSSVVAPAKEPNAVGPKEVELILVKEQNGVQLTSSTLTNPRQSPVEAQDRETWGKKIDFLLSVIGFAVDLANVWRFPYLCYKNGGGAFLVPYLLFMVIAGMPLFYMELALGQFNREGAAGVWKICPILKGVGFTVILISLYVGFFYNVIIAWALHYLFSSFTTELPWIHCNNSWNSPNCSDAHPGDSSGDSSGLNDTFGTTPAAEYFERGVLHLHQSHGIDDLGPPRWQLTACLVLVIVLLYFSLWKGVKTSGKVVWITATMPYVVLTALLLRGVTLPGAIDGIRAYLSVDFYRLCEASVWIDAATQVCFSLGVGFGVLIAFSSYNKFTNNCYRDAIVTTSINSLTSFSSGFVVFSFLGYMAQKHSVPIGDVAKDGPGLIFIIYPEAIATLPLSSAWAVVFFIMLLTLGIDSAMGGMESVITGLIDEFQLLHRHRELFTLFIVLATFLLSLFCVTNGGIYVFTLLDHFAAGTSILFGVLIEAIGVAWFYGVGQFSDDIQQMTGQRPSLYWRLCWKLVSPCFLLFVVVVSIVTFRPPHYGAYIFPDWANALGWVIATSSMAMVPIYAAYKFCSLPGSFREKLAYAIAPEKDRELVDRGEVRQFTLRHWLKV

[3] = target: Sodium-dependent noradrenaline transporter (Homo sapiens, UniProt P23975); assay: Binding affinity to human norepinephrine transporter by ligand displacement assay
Sodium-dependent noradrenaline transporter, sequence (P23975 whole entry): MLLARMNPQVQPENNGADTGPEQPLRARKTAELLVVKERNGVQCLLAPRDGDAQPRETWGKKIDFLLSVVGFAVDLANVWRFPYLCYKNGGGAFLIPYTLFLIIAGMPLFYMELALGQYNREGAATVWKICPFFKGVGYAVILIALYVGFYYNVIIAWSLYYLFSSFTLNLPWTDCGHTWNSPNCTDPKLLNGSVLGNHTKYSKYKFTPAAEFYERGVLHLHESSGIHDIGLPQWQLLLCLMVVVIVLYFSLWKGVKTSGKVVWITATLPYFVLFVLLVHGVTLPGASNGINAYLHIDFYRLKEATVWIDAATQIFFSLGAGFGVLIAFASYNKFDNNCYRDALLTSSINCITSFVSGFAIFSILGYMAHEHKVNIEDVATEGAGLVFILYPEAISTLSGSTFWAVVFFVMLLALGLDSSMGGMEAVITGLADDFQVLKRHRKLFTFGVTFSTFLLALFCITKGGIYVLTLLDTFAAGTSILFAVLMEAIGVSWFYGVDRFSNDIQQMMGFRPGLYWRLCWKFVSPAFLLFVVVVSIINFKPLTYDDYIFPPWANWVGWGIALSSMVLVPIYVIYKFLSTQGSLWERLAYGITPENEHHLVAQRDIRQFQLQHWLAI

DRG neuron [4] = assay: Neuronal activity in mouse DRG neurons assessed as amplification of KCl pulse-induced intracellular calcium transient at 90 uM by fluorescence microscopic analysis; assay type: functional, cell-based
DRG neuron [5] = assay: Neuronal activity in mouse DRG neurons assessed as amplification of KCl pulse-induced intracellular calcium transient at 73 uM by fluorescence microscopic analysis; assay type: functional, cell-based

Sodium-dependent serotonin transporter (Homo sapiens), sequence (P31645 whole entry, looked up): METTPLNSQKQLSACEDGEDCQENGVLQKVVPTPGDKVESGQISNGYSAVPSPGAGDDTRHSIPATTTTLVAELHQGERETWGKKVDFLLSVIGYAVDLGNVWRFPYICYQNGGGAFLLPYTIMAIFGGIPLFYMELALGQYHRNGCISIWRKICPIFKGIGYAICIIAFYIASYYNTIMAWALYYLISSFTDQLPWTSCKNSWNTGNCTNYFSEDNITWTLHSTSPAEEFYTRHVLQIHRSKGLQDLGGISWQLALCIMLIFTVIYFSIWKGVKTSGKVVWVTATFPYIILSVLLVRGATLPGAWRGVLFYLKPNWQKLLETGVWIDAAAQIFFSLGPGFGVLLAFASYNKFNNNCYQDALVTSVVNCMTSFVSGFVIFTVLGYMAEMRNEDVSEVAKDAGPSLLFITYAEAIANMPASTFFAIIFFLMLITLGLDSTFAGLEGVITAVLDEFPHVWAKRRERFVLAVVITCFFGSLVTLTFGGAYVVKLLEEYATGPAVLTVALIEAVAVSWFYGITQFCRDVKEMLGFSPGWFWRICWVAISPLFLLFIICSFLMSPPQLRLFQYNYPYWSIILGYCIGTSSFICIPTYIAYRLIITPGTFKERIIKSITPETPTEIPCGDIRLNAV

- inhibition [1]: inactive
- inhibition [2]: inactive
- Ki [3]: 867 nM
SMILES: O=C(Cc1c[nH]c2ccccc12)C(O)Cc1ccc(O)cc1 (stereo unspecified)

SMILES: CC(C)CC(O)C(=O)Cc1ccc(O)cc1 (stereo unspecified)
- Activity (DRG neuron [4]): inactive

SMILES: O=C(Cc1ccc(O)cc1)C(O)Cc1ccc(O)cc1 (stereo unspecified)
- Activity (DRG neuron [5]): Active

SMILES: CC(C)CC(=O)C(O)Cc1ccc(O)cc1 (stereo unspecified)
- Activity (DRG neuron [4]): inactive
